The values that follow come from patent US12589143B2, “Human anti-PD-L1 peptide vaccines and methods of their use” (priority 2019, dated 2026).

One assay deals with T1, PD-1/PD-L1 interaction (Homo sapiens, UniProt Q9NZQ7).
T1 construct: host or cells: PD-L1 aAPC/CHO-K1 cells and PD-1 effector cells
Kind of assay: PD-1/PD-L1 blockade bioassay (Promega). The format is cell-based. The note with it: antibodies from immunized rabbits, compared to Nivolumab and Atezolizumab. Here is the method: The assay was performed following the manufacturer's protocol for the PD-1/PD-L1 blockade bioassay (Promega).
The bioluminescent cell-based PD-1/PD-L1 blockade bioassays provide a good option for rapid screening of therapeutic antibodies or other compounds developed to interfere with PD-1-signaling interaction. PD1/PD-L1 blockade assay was used to test the functionality of 3 anti-PD-L1 antibodies. It was observed that purified polyclonal anti-PD-L1 antibody from the rabbits was able to block PD1/PD-L1 interaction similar to commercial anti-human PD-L1 antibody (FIG. 12). […] In FIG. 12, we show the capacity of each of the PD-L1 vaccines to block the PD-1:PD-L1 interaction as compared to Nivolumab and Atezolizumab. Remarkably only PD-L1 130-147 antibodies were effective
The assay was performed following the manufacturer's protocol for the PD-1/PD-L1 blockade bioassay (Promega). In brief, 4×10^5 aAPC/CHO-K1 or PD-L1 aAPC/CHO-K1 cells were seeded into 96-well plates in RPMI-1640 with 10% FBS. After overnight culturing, the medium was aspirated, and serially diluted purified PD-L1 or PD-1 antibodies, as well as Nivolumab and Atezolizumab antibodies (as reference antibodies) were added. Next, PD-1 effector cells were co-cultured and plate was kept for 5 h at 37° C. in a humidified 5% CO2 incubator. Following mixing with Bio-Glo Reagent, the luminescence was measured with a luminescence plate reader, SpectraMax M3 plate reader (Molecular Devices).

The next assay has as its system D2F2 WT tumor cells. Kind of assay: D2F2 WT tumor challenge in Balb/c mice. It is filed as in vivo. Particulars: day 21 and day 28. Here is the method:
Balb/c mice 6-8 weeks old, were immunized with G1 and G2 mice were treated with anti-PD-1 mAb (29F.1A12) (G1) or anti-PD-L1 mAb (10F.9G2) (G2 or with MVF-PD-L1 vaccine constructs [PD-L1(92-110)(G3) PD-L1(130-147)(G4)] prior to tumor challenge. Similarly, G10, G11 and G12 are control groups and were not treated prior to tumor cell challenge. G13, G14 and G15 mice were immunized with 100 ug MVF-HER-2(266-296)+100 ug MVF-HER-2(597-626)+ISA720 per mouse for G13, 100 ug MVF-PD-1 (92-110)+100 ug MVF-HER-2(266-296)+100 ug MVF-HER-2(597-626)+ISA720 per mouse for G14 and 100 ug MVF-PD-L1 (130-147)+100 ug MVF-HER-2(266-296)+100 ug MVF-HER-2(597-626)+ISA720 per mouse for G15. The mice were immunized up to 4 times before tumor challenge. […] All the mice had been monitored at least twice per week, and the tumors were measured with calipers as data indicated.
The tumor volumes were measured by calipers and calculated by formula: (length×width2)/2. […] All the peptides immunized groups of mice are shown with less tumor burden than PBS group and mAbs treated groups as well.
G0, G1 and G2 are control groups, mice in these groups were not treated before tumor cells challenge. Following challenge with D2F2 WT tumor cells, G0 mice were treated with PBS (i.p.) twice per week start from day 2 post challenge served as negative control, G1 and G2 mice were treated with anti-PD-1 mAb (29F.1A12) or anti-PD-L1 mAb (10F.9G2), respectively. Treatment for G1 and G2 mouse groups was also started from day 2 post tumor challenge, with 100 ug administered/mouse twice a week. G1 and G2 served as positive control. […] All the mice had been monitored at least twice per week, and the tumors were measured with calipers as data indicated (FIG. 26).
Mice were immunized with designed peptides vaccines as descripted in FIG. 26, which indicated as 1Y, 2Y, 3Y and 4Y here and with 3 weeks apart. […] And the mice were monitor at least twice per week, and the tumors were measured as shown in the data figures.
The tumor volumes were measured by calipers and calculated by formula: (length×width2)/2. […]

Assay [1] relates to HER-2 positive breast cancer. The note with it: patients with untreated HER-2 positive breast cancer; pertuzumab added to docetaxel and trastuzumab vs without; cited from earlier work.

Where no end group is shown, it is not given here.

T1 sequence (Q9NZQ7 19-290): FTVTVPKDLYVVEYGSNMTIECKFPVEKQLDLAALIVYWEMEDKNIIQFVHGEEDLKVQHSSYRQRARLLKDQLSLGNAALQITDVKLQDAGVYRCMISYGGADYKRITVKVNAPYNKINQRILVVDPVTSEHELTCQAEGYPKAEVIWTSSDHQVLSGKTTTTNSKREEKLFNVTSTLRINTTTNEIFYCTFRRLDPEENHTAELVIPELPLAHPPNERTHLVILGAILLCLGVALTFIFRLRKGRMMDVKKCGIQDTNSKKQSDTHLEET

For the substance “MVF-PD-1(92-110) (KLLSLIKGVIVHRLEGVEDCRFRVTQLPNGRDFHMSV-NH2)”, in the assay with PD-1/PD-L1 interaction, the “blocking of PD-1/PD-L1 interaction” value was “unable to block PD-1 and PD-L1”. Besides, the tumor volume result in the assay with D2F2 WT tumor cells is “smaller tumor volume than PBS negative control group and both of mAbs positive control groups”.
For pertuzumab, in assay [1], the overall survival is given as 56.5 months and the progression-free survival was 18.5 months.
